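Five compound concentrations were applied to cells in 96-well plates for 48 hours; endpoints were derived by simple linear interpolation of the resulting dose-response curve. TGI is the concentration that stops growth completely.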
How the values were obtained:
Experiment in all cases: growth of human tumour cells (NCI), 48 h
SNB-19 CNS = tested on: SNB-19 CNS
CAKI-1 renal = tested on: CAKI-1 renal
OVCAR-8 ovarian = tested on: OVCAR-8 ovarian
EKVX NSCLC = tested on: EKVX NSCLC
OVCAR-5 ovarian = tested on: OVCAR-5 ovarian
A498 renal = tested on: A498 renal
A549 NSCLC = tested on: A549 NSCLC
TK-10 renal = tested on: TK-10 renal
HOP-92 NSCLC = tested on: HOP-92 NSCLC
HOP-62 NSCLC = tested on: HOP-62 NSCLC
MCF7 breast = tested on: MCF7 breast
HS 578T breast = tested on: HS 578T breast
MALME-3M melanoma = tested on: MALME-3M melanoma
SK-MEL-2 melanoma = tested on: SK-MEL-2 melanoma
PC-3 prostate = tested on: PC-3 prostate
MDA-N = tested on: MDA-N
NCI-H23 lung = tested on: NCI-H23 lung
MDA-MB-435 = tested on: MDA-MB-435
CCRF-CEM leukemia = tested on: CCRF-CEM leukemia
SW-620 colon = tested on: SW-620 colon
UO-31 renal = tested on: UO-31 renal
KM12 colon = tested on: KM12 colon
NCI-H226 lung = tested on: NCI-H226 lung
HCT-116 colon = tested on: HCT-116 colon
RPMI-8226 leukemia = tested on: RPMI-8226 leukemia
RXF 393 renal = tested on: RXF 393 renal
SN12C renal = tested on: SN12C renal
COLO 205 colon = tested on: COLO 205 colon
SF-539 CNS = tested on: SF-539 CNS
ACHN renal = tested on: ACHN renal
SF-295 CNS = tested on: SF-295 CNS
SK-OV-3 ovarian = tested on: SK-OV-3 ovarian
NCI/ADR-RES ovarian = tested on: NCI/ADR-RES ovarian
T-47D breast = tested on: T-47D breast
HCT-15 colon = tested on: HCT-15 colon
DU-145 prostate = tested on: DU-145 prostate
SNB-75 CNS = tested on: SNB-75 CNS
UACC-257 melanoma = tested on: UACC-257 melanoma
BT-549 breast = tested on: BT-549 breast
UACC-62 melanoma = tested on: UACC-62 melanoma
SR leukemia = tested on: SR leukemia
OVCAR-3 ovarian = tested on: OVCAR-3 ovarian
U251 CNS = tested on: U251 CNS
HL-60(TB) leukemia = tested on: HL-60(TB) leukemia
IGROV1 ovarian = tested on: IGROV1 ovarian
MOLT-4 leukemia = tested on: MOLT-4 leukemia
NCI-H522 lung = tested on: NCI-H522 lung
LOX IMVI melanoma = tested on: LOX IMVI melanoma
MDA-MB-231 breast = tested on: MDA-MB-231 breast
NCI-H460 lung = tested on: NCI-H460 lung
K-562 leukemia = tested on: K-562 leukemia
OVCAR-4 ovarian = tested on: OVCAR-4 ovarian
SF-268 CNS = tested on: SF-268 CNS
M14 melanoma = tested on: M14 melanoma
786-0 renal = tested on: 786-0 renal
SK-MEL-5 melanoma = tested on: SK-MEL-5 melanoma
HT29 colon = tested on: HT29 colon
SK-MEL-28 melanoma = tested on: SK-MEL-28 melanoma
HCC-2998 colon = tested on: HCC-2998 colon

SMILES: COC(=O)C1=C(C)NC(C)=C(C(=O)OC)C1c1ccc(NO)cc1
- TGI (SNB-19 CNS): > 78.8 µM
- TGI (CAKI-1 renal): 29.1 µM
- TGI (OVCAR-8 ovarian): 24.7 µM
- TGI (EKVX NSCLC): 47.4 µM
- TGI (OVCAR-5 ovarian): 29.8 µM
- TGI (A498 renal): 93.8 µM
- TGI (A549 NSCLC): 43.5 µM
- TGI (TK-10 renal): 30.9 µM
- TGI (HOP-92 NSCLC): 12.7 µM
- TGI (HOP-62 NSCLC): 32.9 µM
- TGI (MCF7 breast): 19.2 µM
- TGI (HS 578T breast): 47.3 µM
- TGI (MALME-3M melanoma): 25.8 µM
- TGI (SK-MEL-2 melanoma): 34.2 µM
- TGI (PC-3 prostate): 26.3 µM
- TGI (MDA-N): 24.7 µM
- TGI (NCI-H23 lung): 49.8 µM
- TGI (MDA-MB-435): 28.7 µM
- TGI (CCRF-CEM leukemia): > 27.3 µM
- TGI (SW-620 colon): 19.8 µM
- TGI (UO-31 renal): 23.5 µM
- TGI (KM12 colon): 31.6 µM
- TGI (NCI-H226 lung): 47.1 µM
- TGI (HCT-116 colon): 21.8 µM
- TGI (RPMI-8226 leukemia): 16.4 µM
- TGI (RXF 393 renal): 36 µM
- TGI (SN12C renal): 33.6 µM
- TGI (COLO 205 colon): 29.2 µM
- TGI (SF-539 CNS): 29.6 µM
- TGI (ACHN renal): 25.8 µM
- TGI (SF-295 CNS): 33.1 µM
- TGI (SK-OV-3 ovarian): 50.3 µM
- TGI (NCI/ADR-RES ovarian): 48.5 µM
- TGI (T-47D breast): 32.7 µM
- TGI (HCT-15 colon): 26.5 µM
- TGI (DU-145 prostate): 35.8 µM
- TGI (SNB-75 CNS): 45.8 µM
- TGI (UACC-257 melanoma): 15.7 µM
- TGI (BT-549 breast): 26.5 µM
- TGI (UACC-62 melanoma): 26.8 µM
- TGI (SR leukemia): > 20.4 µM
- TGI (OVCAR-3 ovarian): 26.7 µM
- TGI (U251 CNS): 29.9 µM
- TGI (HL-60(TB) leukemia): > 20.2 µM
- TGI (IGROV1 ovarian): 30.9 µM
- TGI (MOLT-4 leukemia): > 22.4 µM
- TGI (NCI-H522 lung): 12.2 µM
- TGI (LOX IMVI melanoma): 12.9 µM
- TGI (MDA-MB-231 breast): 26.6 µM
- TGI (NCI-H460 lung): 33.9 µM
- TGI (K-562 leukemia): 8.07 µM
- TGI (OVCAR-4 ovarian): 25 µM
- TGI (SF-268 CNS): 43.1 µM
- TGI (M14 melanoma): 27.9 µM
- TGI (786-0 renal): 28.9 µM
- TGI (SK-MEL-5 melanoma): 30.1 µM
- TGI (HT29 colon): 29.8 µM
- TGI (SK-MEL-28 melanoma): 34.1 µM
- TGI (HCC-2998 colon): 35.1 µM

SMILES: COC(O)C12OC3CO[Si](C(C)C)(C(C)C)O[Si](C(C)C)(C(C)C)OC3C1Oc1nc(=O)ccn12 (stereo not drawn)
- TGI (SNB-19 CNS): 28.9 µM
- TGI (CAKI-1 renal): 33.7 µM
- TGI (OVCAR-8 ovarian): 24.6 µM
- TGI (EKVX NSCLC): 28.7 µM
- TGI (OVCAR-5 ovarian): 29.1 µM
- TGI (A498 renal): 32.9 µM
- TGI (A549 NSCLC): 26.1 µM
- TGI (TK-10 renal): 28.7 µM
- TGI (HOP-92 NSCLC): 22 µM
- TGI (HOP-62 NSCLC): 26.9 µM
- TGI (MCF7 breast): 24.8 µM
- TGI (HS 578T breast): 19.5 µM
- TGI (MALME-3M melanoma): 26.9 µM
- TGI (SK-MEL-2 melanoma): 25.1 µM
- TGI (PC-3 prostate): 17 µM
- TGI (MDA-N): 26.7 µM
- TGI (NCI-H23 lung): 28.4 µM
- TGI (MDA-MB-435): 26.7 µM
- TGI (CCRF-CEM leukemia): 18.5 µM
- TGI (SW-620 colon): > 52.7 µM
- TGI (UO-31 renal): 29.3 µM
- TGI (KM12 colon): 19 µM
- TGI (NCI-H226 lung): 33.9 µM
- TGI (HCT-116 colon): 21.8 µM
- TGI (RPMI-8226 leukemia): 3.51 µM
- TGI (RXF 393 renal): 24.6 µM
- TGI (SN12C renal): 27.8 µM
- TGI (COLO 205 colon): 27.3 µM
- TGI (SF-539 CNS): 29.3 µM
- TGI (ACHN renal): 27.5 µM
- TGI (SF-295 CNS): 24.8 µM
- TGI (SK-OV-3 ovarian): 31.6 µM
- TGI (NCI/ADR-RES ovarian): 50.6 µM
- TGI (T-47D breast): 24.1 µM
- TGI (HCT-15 colon): 30.9 µM
- TGI (DU-145 prostate): 30.6 µM
- TGI (SNB-75 CNS): 41.3 µM
- TGI (UACC-257 melanoma): 24.3 µM
- TGI (BT-549 breast): 29.3 µM
- TGI (UACC-62 melanoma): 23.4 µM
- TGI (SR leukemia): 6.98 µM
- TGI (OVCAR-3 ovarian): 23.5 µM
- TGI (U251 CNS): > 48.3 µM
- TGI (HL-60(TB) leukemia): 13.2 µM
- TGI (IGROV1 ovarian): 25.6 µM
- TGI (MOLT-4 leukemia): 5.78 µM
- TGI (NCI-H522 lung): 18.3 µM
- TGI (LOX IMVI melanoma): 27.9 µM
- TGI (MDA-MB-231 breast): 34 µM
- TGI (NCI-H460 lung): 23.4 µM
- TGI (K-562 leukemia): 64.9 µM
- TGI (OVCAR-4 ovarian): 28 µM
- TGI (SF-268 CNS): 26.4 µM
- TGI (M14 melanoma): 25.3 µM
- TGI (786-0 renal): 31.1 µM
- TGI (SK-MEL-5 melanoma): 21.1 µM
- TGI (HT29 colon): 20.5 µM
- TGI (SK-MEL-28 melanoma): > 100 µM
- TGI (HCC-2998 colon): 14.9 µM

Reference: PubChem BioAssay (NCI)
